Data published in patent US7217730B2, “Method for the use of pyranoindole derivatives to treat infection with Hepatitis C virus” (Wyeth, priority 2002, dated 2007).

Molecular target: T1, NS5B from the BK strain (genotype 1b) (Hepatitis C virus genotype 1b, UniProt P26663)
T1 construct: NS5B from the BK strain (genotype 1b) is expressed in E. coli as a protein in which the 21 C-terminal amino acids are replaced; made in house; host or cells: E. coli
Experiment: Hepatitis C polymerase inhibition, NS5B BK strain, 33P-GTP filter assay
Type: biochemical
Details: Table 1A; for IC50: NS5B BK strain, read-out: HCV pol BK IC50; for inhibition at 20 µM: 20 μM compound, read-out: HCV pol % inh at 20 μM
Source text: The ability of the compounds of the present invention to inhibit Hepatitis C Polymerase was established by the following experimental procedure: • NS5B from the BK strain (genotype 1b) is expressed in E. coli as a protein in which the 21 C-terminal amino acids are replaced with a short linker and a hexahistidine tag ([…]). The purified protein is mixed with radioactive nucleotides and allowed to replicate a heteropolymeric RNA substrate, primed by an endogenous short hairpin, resulting in an approximately 760 nt product. The radioactive product is captured on a filter and quantitated after removal of the unincorporated nucleotides.
Reagents: • 10 mM uridine 5′-triphosphate (UTP) (Promega # p116B) • 10 mM adenine 5′-triphosphate (ATP) (Promega # p113B) • 10 mM cytidine 5′-triphosphate (CTP) (Promega # p114B) • 10 mM guanine 5′-triphosphate (GTP) (Promega # p115B) • Bovine Serum Albumin (BSA) 10 mg/ml NEB (100× at 10 mg/ml) #007-BSA • RNasein (Promega #N251X) 40 U/μl • A-[33P]-GTP (NEN-easytides NEG/606H 3000 Ci/mmol, 370 MBq/ml, 10 mCi/ml) • Falcon polypropylene 96 well plates (Becton Dickinson # 351190) • Millipore Multiscreen assasy system-96 well-filtration plate #MADE NOB 50 • Optiphase Supermix (Wallac) formulated by Fisher • Millipore Multiscreen liner for use in microbeta 1450-106 casette [(Wallac) Perkin Elmer #1450-433] • 1 M(N-[2-hydroxyethyl]piperazine-N′-[2-ethanesulfonic acid]) (HEPES), pH 7.3 • Amersham Pharmacia Biotec (US16924-500 ml) • 1 M MgCl2 (SIGMA #M1028) • Dithiothreitol (DTT) (solid) (SIGMA #D9779) • RNase free water (GIBCO-BRL #10977-023) • Dimethyl sulfoxide (Aldrich #27685-5) • Basilen Blue (Sigma, B5520) • 0.5M ethylenediaminetetraacetic acid (EDTA), pH 8 (GIBCO-BRL #15575-020) • Dibasic sodium phosphate (7-hydrate) (Na2HPO4.7H2O; Baker#3824-07) • Phosphoric acid (Baker, #0262.02)
Further reagent preparation: • 0.5 M Na Phosphate buffer. Per liter, weigh 134 gr Na2HPO4.7H2O, add water to 900 ml. Adjust pH to 7.0 with phosphoric acid. Top off with water to 1 L. • Dilute nucleotides 1:1000 to 10 μM (GTP and CTP) or 1:100 to 100 μM (ATP and UTP) into RNase free water.
Procedure: • (1) Compounds 10 μl at 10 μg/ml in 15% dimethylsulfoxide (DMSO)
When starting from 100 μg/ml compound stock in […]: • Dispense 5 μl 30% DMSO per well • Dispense 5 μl compound (100 μg/ml) per well.
When starting from 50 μg/ml compound stock in 15% DMSO: • Add 10 μl compound per well. • (2) Enzyme Mix:
Add 20 μl enzyme mix into each well of the assay plate. Incubate compound and enzyme at room temperature for 15 minutes • (3) Template mix—prepare ahead
Spin down a tube of RNA (5 μg/tube stored in 75% ethanol and 0.3 M sodium acetate) in a microcentrifuge for 20 minutes at 4° C. One tube is enough for 1–1.5 plates. Remove as much ethanol from the tube as possible by inverting the tube. Be gentle, pellet RNA may not adhere to the tube. Vacuum dry the RNA. Resuspend the RNA by adding 1 ml of DEPC water, close the cap of the tube tightly. To dissolve RNA, incubate RNA solution on ice for ˜60 minutes and gently vortex. Spin briefly to ensure all RNA solution is down to the bottom of the tube before opening cap. Gently transfer RNA solution into a 5 ml or larger tube. Add another 3 ml of DEPC water (total 4 ml of volume).
Add the following volumes of reagents
Add 20 μl template mix per reaction (i.e. 20 ng of pOF per reaction or ˜3 nM) • (4) Incubate reaction at room temperature (22–25° C.) for 2 hours. • (5) Stop reaction by adding 50 μl of 170 mM EDTA. • Final concentration of EDTA is 85 mM. • (6) Prewet filters of Millipore multiscreen assay plate by adding 200 μl of 0.5 M sodium phosphate buffer, pH 7.0 into each well. Let stand at room temperature for 2–3 minutes. • (7) Place the multiscreen filter plate onto a Millipore Manifold and turn on vacuum to allow buffer to flow through. Turn off vacuum. Transfer 80 μl of the reaction product into each well of the filter plate. Let stand for 2–3 minutes. […]

T1 sequence (P26663 2420-2989): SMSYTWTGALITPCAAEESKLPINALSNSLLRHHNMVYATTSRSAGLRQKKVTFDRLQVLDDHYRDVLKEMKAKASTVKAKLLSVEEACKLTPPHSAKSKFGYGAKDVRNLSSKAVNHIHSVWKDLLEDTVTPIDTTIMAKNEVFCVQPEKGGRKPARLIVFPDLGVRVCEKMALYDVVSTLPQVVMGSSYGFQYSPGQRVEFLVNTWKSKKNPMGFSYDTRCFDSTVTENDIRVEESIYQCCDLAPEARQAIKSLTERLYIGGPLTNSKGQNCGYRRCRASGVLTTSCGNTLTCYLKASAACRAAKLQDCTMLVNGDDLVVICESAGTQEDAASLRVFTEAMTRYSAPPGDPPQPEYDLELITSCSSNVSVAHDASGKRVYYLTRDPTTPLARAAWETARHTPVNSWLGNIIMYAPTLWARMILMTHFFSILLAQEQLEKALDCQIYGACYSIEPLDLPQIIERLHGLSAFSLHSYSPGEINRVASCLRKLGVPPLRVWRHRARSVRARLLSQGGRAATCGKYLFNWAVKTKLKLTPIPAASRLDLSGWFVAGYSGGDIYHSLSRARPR

SMILES | IC50 | inhibition at 20 µM
CCCC1(CC(=O)O)OCCc2c1[nH]c1c(C)ccc(C#N)c21 (stereo not drawn) [Example 1, (5-cyano-8-methyl-1-propyl-1,3,4,9-tetrahydro-pyrano[3,4-b]indol-1-yl)acetic acid] | 0.5 µM | –
CCC[C@@]1(CC(=O)O)OCCc2c1[nH]c1c(C)ccc(C#N)c21 [Example 3, [(S)-5-cyano-8-methyl-1-propyl-1,3,4,9-tetrahydropyrano[3,4-b]indol-1-yl]acetic acid] | 2.4 µM | –
CCCC1(CC(=O)O)OCCc2c1[nH]c1c(F)ccc(C#N)c21 (stereo not drawn) [Example 4, (5-cyano-8-fluoro-1-propyl-1,3,4,9-tetrahydro-pyrano[3,4-b]indol-1-yl)acetic acid] | 1 µM | –
CCC[C@@]1(CC(=O)O)OCCc2c1[nH]c1c(F)ccc(C#N)c21 [Example 6, [(S)-5-cyano-8-fluoro-1-propyl-1,3,4,9-tetrahydropyrano[3,4-b]indol-1-yl]acetic acid] | 5.7 µM | –
CCCC1(CC(=O)O)OCCc2c1[nH]c1c(Cl)ccc(Cl)c21 (stereo not drawn) [Example 7, (5,8-dichloro-1-propyl-1,3,4,9-tetrahydro-pyrano[3,4-b]indol-1-yl)acetic acid] | 0.2 µM | –
CCC[C@@]1(CC(=O)O)OCCc2c1[nH]c1c(Cl)ccc(Cl)c21 [Example 9, [(S)-5,8-dichloro-1-propyl-1,3,4,9-tetrahydropyrano[3,4-b]indol-1-yl]acetic acid] | 1.1 µM | –
CCCC1(CC(=O)O)OCCc2c1[nH]c1c(C)cc(F)c(C#N)c21 (stereo not drawn) [Example 10, (5-cyano-6-fluoro-8-methyl-1-propyl-1,3,4,9-tetrahydropyrano[3,4-b]indol-1-yl)acetic acid] | 0.08 µM | –
CCC[C@@]1(CC(=O)O)OCCc2c1[nH]c1c(C)cc(F)c(C#N)c21 [Example 12, [(S)-5-cyano-6-fluoro-8-methyl-1-propyl-1,3,4,9-tetrahydropyrano[3,4-b]indol-1-yl]acetic acid] | 0.6 µM | –
CCC1(CC(=O)O)OCCc2c1[nH]c1cccc(Cl)c21 (stereo not drawn) [Example 13, (5-Chloro-1-ethyl-1,3,4,9-tetrahydropyrano[3,4-b]indol-1-yl)acetic acid] | > 20 µM | 23%
CCCC1(CC(=O)O)OCCc2c1[nH]c1cccc(Cl)c21 (stereo not drawn) [Example 14, (5-Chloro-1-propyl-1,3,4,9-tetrahydropyrano[3,4-b]indol-1-yl)acetic acid] | 11 µM | 75%
CC(C)C1(CC(=O)O)OCCc2c1[nH]c1cccc(Cl)c21 (stereo not drawn) [Example 15, (5-chloro-1-isopropyl-1,3,4,9-tetrahydropyrano[3,4-b]indol-1-yl)acetic acid] | > 20 µM | 7%
C/C=C/CCC1(CC(=O)O)OCCc2c1[nH]c1cccc(Cl)c21 (stereo not drawn) [Example 16, {5-chloro-1-[(3E)-pent-3-enyl]-1,3,4,9-tetrahydropyrano[3,4-b]indol-1-yl}acetic acid] | > 20 µM | < 5%
O=C(O)CC1(c2ccccc2)OCCc2c1[nH]c1cccc(Cl)c21 (stereo not drawn) [Example 17, (5-chloro-1-phenyl-1,3,4,9-tetrahydropyrano[3,4-b]indol-1-yl)acetic acid] | > 20 µM | < 5%
O=C(O)CC1(c2ccc([N+](=O)[O-])cc2)OCCc2c1[nH]c1cccc(Cl)c21 (stereo not drawn) [Example 18, [5-chloro-1-(4-nitrophenyl)-1,3,4,9-tetrahydropyrano[3,4-b]indol-1-yl]acetic acid] | > 20 µM | < 5%
O=C(O)CC1(c2cccc([N+](=O)[O-])c2)OCCc2c1[nH]c1cccc(Cl)c21 (stereo not drawn) [Example 19, [5-chloro-1-(3-nitrophenyl)-1,3,4,9-tetrahydropyrano[3,4-b]indol-1-yl]acetic acid] | > 20 µM | 6%
O=C(O)CC1(c2ccccc2F)OCCc2c1[nH]c1cccc(Cl)c21 (stereo not drawn) [Example 20, [5-chloro-1-(2-fluorophenyl)-1,3,4,9-tetrahydropyrano[3,4-b]indol-1-yl]acetic acid] | > 20 µM | 21%
CCC1(CC(=O)O)OCCc2c1[nH]c1cccc(Br)c21 (stereo not drawn) [Example 21, (5-bromo-1-ethyl-1,3,4,9-tetrahydro-pyrano[3,4-b]indol-1-yl)acetic acid] | > 20 µM | 58%
CCCC1(CC(=O)O)OCCc2c1[nH]c1cccc(Br)c21 (stereo not drawn) [Example 22, (5-bromo-1-propyl-1,3,4,9-tetrahydropyrano[3,4-b]indol-1-yl)acetic acid] | – | 70%
CC(C)C1(CC(=O)O)OCCc2c1[nH]c1cccc(Br)c21 (stereo not drawn) [Example 23, (5-bromo-1-isopropyl-1,3,4,9-tetrahydropyrano[3,4-b]indol-1-yl)acetic acid] | > 20 µM | 12%
C/C=C/CCC1(CC(=O)O)OCCc2c1[nH]c1cccc(Br)c21 (stereo not drawn) [Example 24, {5-bromo-1-[(3E)-pent-3-enyl]-1,3,4,9-tetrahydropyrano[3,4-b]indol-1-yl}acetic acid] | > 20 µM | < 5%
O=C(O)CC1(c2ccoc2)OCCc2c1[nH]c1cccc(Br)c21 (stereo not drawn) [Example 25, [5-bromo-1-(3-furyl)-1,3,4,9-tetrahydropyrano[3,4-b]indol-1-yl]acetic acid] | > 20 µM | 33%
O=C(O)CC1(c2ccccc2)OCCc2c1[nH]c1cccc(Br)c21 (stereo not drawn) [Example 26, (5-bromo-1-phenyl-1,3,4,9-tetrahydropyrano[3,4-b]indol-1-yl)acetic acid] | > 20 µM | < 5%
COc1cc(C2(CC(=O)O)OCCc3c2[nH]c2cccc(Br)c32)cc(OC)c1OC (stereo not drawn) [Example 27, [5-bromo-1-(3,4,5-trimethoxyphenyl)-1,3,4,9-tetrahydropyrano[3,4-b]indol-1-yl]acetic acid] | > 20 µM | 3%
O=C(O)CC1(c2ccc([N+](=O)[O-])cc2)OCCc2c1[nH]c1cccc(Br)c21 (stereo not drawn) [Example 28, [5-bromo-1-(4-nitrophenyl)-1,3,4,9-tetrahydropyrano[3,4-b]indol-1-yl]acetic acid] | > 20 µM | < 5%
O=C(O)CC1(c2cccc([N+](=O)[O-])c2)OCCc2c1[nH]c1cccc(Br)c21 (stereo not drawn) [Example 29, [5-bromo-1-(3-nitrophenyl)-1,3,4,9-tetrahydropyrano[3,4-b]indol-1-yl]acetic acid] | > 20 µM | < 5%
O=C(O)CC1(c2ccccc2F)OCCc2c1[nH]c1cccc(Br)c21 (stereo not drawn) [Example 30, [5-bromo-1-(2-fluorophenyl)-1,3,4,9-tetrahydropyrano[3,4-b]indol-1-yl]acetic acid] | > 20 µM | < 5%
CCCC1(CC(=O)O)OCCc2c1[nH]c1cccc(-c3ccccc3)c21 (stereo not drawn) [Example 31, (5-phenyl-1-propyl-1,3,4,9-tetrahydropyrano[3,4-b]indol-1-yl)acetic acid] | > 20 µM | 12%
